Where a SMILES comes first, the peptide text is derived from it. Bridges are numbered along the chain shown (N, C = ends). [ ]: non-standard residue; d: D form. hPhe(3-Cl-4-CF3) = N[C@@H](CCc1ccc(C(F)(F)F)c(Cl)c1)C(=O)O; NPrPhe(4-CF3) = CCCN[C@@H](Cc1ccc(C(F)(F)F)cc1)C(=O)O; NMeGly(cPent) = CN[C@H](C(=O)O)C1CCCC1; Pro(4,4-F2) = O=C(O)[C@@H]1CC(F)(F)CN1; Hyp = O=C(O)[C@@H]1C[C@@H](O)CN1; NMeL = CN[C@@H](CC(C)C)C(=O)O; NMeA = CN[C@@H](C)C(=O)O; Ac5c = NC1(C(=O)O)CCCC1; Aze = O=C(O)[C@@H]1CCN1; Ac4c = NC1(C(=O)O)CCC1; Sar = CNCC(=O)O
Tests used:
[1] = target: GDP-bound NRAS wild-type protein (Homo sapiens, UniProt P01111); assay: Binding to NRAS by surface plasmon resonance (SPR), Single Cycle Kinetics; settings: KD ratio NRAS/KRAS, SPR
[2] = target: GDP-bound HRAS wild-type protein (Homo sapiens, UniProt P01112); assay: Binding to HRAS by surface plasmon resonance (SPR), Single Cycle Kinetics; settings: KD ratio HRAS/KRAS, SPR
GDP-bound HRAS wild-type protein, sequence (P01112 whole entry): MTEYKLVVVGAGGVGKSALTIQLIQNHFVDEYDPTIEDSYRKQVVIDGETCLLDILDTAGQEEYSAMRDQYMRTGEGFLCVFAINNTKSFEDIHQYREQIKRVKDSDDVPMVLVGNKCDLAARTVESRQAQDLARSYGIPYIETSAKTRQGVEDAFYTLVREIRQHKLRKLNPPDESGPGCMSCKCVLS

GDP-bound NRAS wild-type protein, sequence (P01111 whole entry): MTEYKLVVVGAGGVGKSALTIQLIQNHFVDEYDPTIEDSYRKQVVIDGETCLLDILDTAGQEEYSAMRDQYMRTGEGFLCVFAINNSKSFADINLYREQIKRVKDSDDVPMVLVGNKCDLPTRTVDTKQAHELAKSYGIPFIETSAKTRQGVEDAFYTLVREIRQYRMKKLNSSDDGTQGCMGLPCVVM

Compound | NRAS/KRAS (ratio of KD for GDP-bound NRAS wild-type to KD for KRAS) [1] | HRAS/KRAS (ratio of KD for GDP-bound HRAS wild-type to KD for KRAS) [2]
CCCN1C(=O)CN(C)C(=O)[C@@H]2CCN2C(=O)[C@H]([C@@H](C)CC)NC(=O)[C@H](CC(C)C)N(C)C(=O)C[C@@H](C(=O)N(C)C)NC(=O)[C@H](C2CCCC2)N(C)C(=O)C2(CCCC2)NC(=O)[C@@H]2CCCN2C(=O)[C@H](CCc2ccc(C(F)(F)F)c(Cl)c2)NC(=O)CN(C)C(=O)[C@@H]1Cc1ccc(C(F)(F)F)cc1 [PP0373] ([NMeL]I[Aze][Sar][NPrPhe(4-CF3)][Sar][hPhe(3-Cl-4-CF3)]P[Ac5c][NMeGly(cPent)]D-NMe2; lactam N-11) | B (a compound having 3 or more and less than 10 is denoted as B) | B (a compound having 3 or more and less than 10 is denoted as B)
CCCN1C(=O)CN(C)C(=O)[C@@H]2CCN2C(=O)[C@H]([C@@H](C)CC)NC(=O)[C@H](CC(C)C)N(C)C(=O)C[C@@H](C(=O)N(C)C)NC(=O)[C@H](C2CCCC2)N(C)C(=O)C2(CCC2)NC(=O)[C@@H]2CCCN2C(=O)[C@H](CCc2ccc(C(F)(F)F)c(Cl)c2)NC(=O)CN(C)C(=O)[C@@H]1Cc1ccc(C(F)(F)F)cc1 [PP0374] ([NMeL]I[Aze][Sar][NPrPhe(4-CF3)][Sar][hPhe(3-Cl-4-CF3)]P[Ac4c][NMeGly(cPent)]D-NMe2; lactam N-11) | B (a compound having 3 or more and less than 10 is denoted as B) | B (a compound having 3 or more and less than 10 is denoted as B)
CCCN1C(=O)CN(C)C(=O)[C@@H]2CCN2C(=O)[C@H]([C@@H](C)CC)NC(=O)[C@H](CC(C)C)N(C)C(=O)C[C@@H](C(=O)N(C)C)NC(=O)[C@H](C2CCCC2)N(C)C(=O)C2(CCCC2)NC(=O)[C@@H]2CC(F)(F)CN2C(=O)[C@H](CCc2ccc(C(F)(F)F)c(Cl)c2)NC(=O)CN(C)C(=O)[C@@H]1Cc1ccc(C(F)(F)F)cc1 [PP0375] ([NMeL]I[Aze][Sar][NPrPhe(4-CF3)][Sar][hPhe(3-Cl-4-CF3)][Pro(4,4-F2)][Ac5c][NMeGly(cPent)]D-NMe2; lactam N-11) | B (a compound having 3 or more and less than 10 is denoted as B) | B (a compound having 3 or more and less than 10 is denoted as B)
CCCN1C(=O)CN(C)C(=O)[C@@H]2CCN2C(=O)[C@H]([C@@H](C)CC)NC(=O)[C@H](CC(C)C)N(C)C(=O)C[C@@H](C(=O)N(C)C)NC(=O)[C@H](C2CCCC2)N(C)C(=O)C2(CCC2)NC(=O)[C@@H]2CC(F)(F)CN2C(=O)[C@H](CCc2ccc(C(F)(F)F)c(Cl)c2)NC(=O)CN(C)C(=O)[C@@H]1Cc1ccc(C(F)(F)F)cc1 [PP0376] ([NMeL]I[Aze][Sar][NPrPhe(4-CF3)][Sar][hPhe(3-Cl-4-CF3)][Pro(4,4-F2)][Ac4c][NMeGly(cPent)]D-NMe2; lactam N-11) | B (a compound having 3 or more and less than 10 is denoted as B) | B (a compound having 3 or more and less than 10 is denoted as B)
CCCN1C(=O)CN(C)C(=O)[C@@H]2CCN2C(=O)[C@H]([C@@H](C)CC)NC(=O)[C@H](CC(C)C)N(C)C(=O)C[C@@H](C(=O)N(C)C)NC(=O)[C@H](C2CCCC2)N(C)C(=O)C2(CCCC2)NC(=O)[C@@H]2C[C@@H](OCC)CN2C(=O)[C@H](CCc2ccc(C(F)(F)F)c(Cl)c2)NC(=O)CN(C)C(=O)[C@@H]1Cc1ccc(C(F)(F)F)cc1 [PP0377] ([NMeL]I[Aze][Sar][NPrPhe(4-CF3)][Sar][hPhe(3-Cl-4-CF3)][Hyp](Et)[Ac5c][NMeGly(cPent)]D-NMe2; lactam N-11) | B (a compound having 3 or more and less than 10 is denoted as B) | C (A compound having a KD ratio of 0.1 or more and less than 3 is denoted as C)
CCCN1C(=O)CN(C)C(=O)[C@@H]2CCN2C(=O)[C@H]([C@@H](C)CC)NC(=O)[C@H](CC(C)C)N(C)C(=O)C[C@@H](C(=O)N(C)C)NC(=O)[C@H](C2CCCC2)N(C)C(=O)C2(CCC2)NC(=O)[C@@H]2C[C@@H](OCC)CN2C(=O)[C@H](CCc2ccc(C(F)(F)F)c(Cl)c2)NC(=O)CN(C)C(=O)[C@@H]1Cc1ccc(C(F)(F)F)cc1 [PP0378] ([NMeL]I[Aze][Sar][NPrPhe(4-CF3)][Sar][hPhe(3-Cl-4-CF3)][Hyp](Et)[Ac4c][NMeGly(cPent)]D-NMe2; lactam N-11) | B (a compound having 3 or more and less than 10 is denoted as B) | B (a compound having 3 or more and less than 10 is denoted as B)
CCCN1C(=O)[C@@H]2CCN2C(=O)[C@H](C)N(C)C(=O)[C@H]([C@@H](C)CC)NC(=O)[C@H](CC(C)C)N(C)C(=O)C[C@@H](C(=O)N(C)C)NC(=O)[C@H](C2CCCC2)N(C)C(=O)C2(CCCC2)NC(=O)[C@@H]2CCCN2C(=O)[C@H](CCc2ccc(C(F)(F)F)c(Cl)c2)NC(=O)CN(C)C(=O)[C@@H]1Cc1ccc(C(F)(F)F)cc1 [PP0379] ([NMeL]I[NMeA][Aze][NPrPhe(4-CF3)][Sar][hPhe(3-Cl-4-CF3)]P[Ac5c][NMeGly(cPent)]D-NMe2; lactam N-11) | C (A compound having a KD ratio of 0.1 or more and less than 3 is denoted as C) | B (a compound having 3 or more and less than 10 is denoted as B)
CCCN1C(=O)[C@@H]2CCN2C(=O)[C@H](C)N(C)C(=O)[C@H]([C@@H](C)CC)NC(=O)[C@H](CC(C)C)N(C)C(=O)C[C@@H](C(=O)N(C)C)NC(=O)[C@H](C2CCCC2)N(C)C(=O)C2(CCC2)NC(=O)[C@@H]2CCCN2C(=O)[C@H](CCc2ccc(C(F)(F)F)c(Cl)c2)NC(=O)CN(C)C(=O)[C@@H]1Cc1ccc(C(F)(F)F)cc1 [PP0380] ([NMeL]I[NMeA][Aze][NPrPhe(4-CF3)][Sar][hPhe(3-Cl-4-CF3)]P[Ac4c][NMeGly(cPent)]D-NMe2; lactam N-11) | C (A compound having a KD ratio of 0.1 or more and less than 3 is denoted as C) | B (a compound having 3 or more and less than 10 is denoted as B)
CCCN1C(=O)[C@@H]2CCN2C(=O)[C@H](C)N(C)C(=O)[C@H]([C@@H](C)CC)NC(=O)[C@H](CC(C)C)N(C)C(=O)C[C@@H](C(=O)N(C)C)NC(=O)[C@H](C2CCCC2)N(C)C(=O)C2(CCCC2)NC(=O)[C@@H]2CC(F)(F)CN2C(=O)[C@H](CCc2ccc(C(F)(F)F)c(Cl)c2)NC(=O)CN(C)C(=O)[C@@H]1Cc1ccc(C(F)(F)F)cc1 [PP0381] ([NMeL]I[NMeA][Aze][NPrPhe(4-CF3)][Sar][hPhe(3-Cl-4-CF3)][Pro(4,4-F2)][Ac5c][NMeGly(cPent)]D-NMe2; lactam N-11) | C (A compound having a KD ratio of 0.1 or more and less than 3 is denoted as C) | B (a compound having 3 or more and less than 10 is denoted as B)
CCCN1C(=O)[C@@H]2CCN2C(=O)[C@H](C)N(C)C(=O)[C@H]([C@@H](C)CC)NC(=O)[C@H](CC(C)C)N(C)C(=O)C[C@@H](C(=O)N(C)C)NC(=O)[C@H](C2CCCC2)N(C)C(=O)C2(CCC2)NC(=O)[C@@H]2CC(F)(F)CN2C(=O)[C@H](CCc2ccc(C(F)(F)F)c(Cl)c2)NC(=O)CN(C)C(=O)[C@@H]1Cc1ccc(C(F)(F)F)cc1 [PP0382] ([NMeL]I[NMeA][Aze][NPrPhe(4-CF3)][Sar][hPhe(3-Cl-4-CF3)][Pro(4,4-F2)][Ac4c][NMeGly(cPent)]D-NMe2; lactam N-11) | C (A compound having a KD ratio of 0.1 or more and less than 3 is denoted as C) | B (a compound having 3 or more and less than 10 is denoted as B)
CCCN1C(=O)[C@@H]2CCN2C(=O)[C@H](C)N(C)C(=O)[C@H]([C@@H](C)CC)NC(=O)[C@H](CC(C)C)N(C)C(=O)C[C@@H](C(=O)N(C)C)NC(=O)[C@H](C2CCCC2)N(C)C(=O)C2(CCCC2)NC(=O)[C@@H]2C[C@@H](OCC)CN2C(=O)[C@H](CCc2ccc(C(F)(F)F)c(Cl)c2)NC(=O)CN(C)C(=O)[C@@H]1Cc1ccc(C(F)(F)F)cc1 [PP0383] ([NMeL]I[NMeA][Aze][NPrPhe(4-CF3)][Sar][hPhe(3-Cl-4-CF3)][Hyp](Et)[Ac5c][NMeGly(cPent)]D-NMe2; lactam N-11) | C (A compound having a KD ratio of 0.1 or more and less than 3 is denoted as C) | B (a compound having 3 or more and less than 10 is denoted as B)
CCCN1C(=O)[C@@H]2CCN2C(=O)[C@H](C)N(C)C(=O)[C@H]([C@@H](C)CC)NC(=O)[C@H](CC(C)C)N(C)C(=O)C[C@@H](C(=O)N(C)C)NC(=O)[C@H](C2CCCC2)N(C)C(=O)C2(CCC2)NC(=O)[C@@H]2C[C@@H](OCC)CN2C(=O)[C@H](CCc2ccc(C(F)(F)F)c(Cl)c2)NC(=O)CN(C)C(=O)[C@@H]1Cc1ccc(C(F)(F)F)cc1 [PP0384] ([NMeL]I[NMeA][Aze][NPrPhe(4-CF3)][Sar][hPhe(3-Cl-4-CF3)][Hyp](Et)[Ac4c][NMeGly(cPent)]D-NMe2; lactam N-11) | C (A compound having a KD ratio of 0.1 or more and less than 3 is denoted as C) | B (a compound having 3 or more and less than 10 is denoted as B)
CCCN1C(=O)[C@@H]2CCN2C(=O)CN(C)C(=O)[C@H]([C@@H](C)CC)NC(=O)[C@H](CC(C)C)N(C)C(=O)C[C@@H](C(=O)N(C)C)NC(=O)[C@H](C2CCCC2)N(C)C(=O)C2(CCC2)NC(=O)[C@@H]2CCCN2C(=O)[C@H](CCc2ccc(C(F)(F)F)c(Cl)c2)NC(=O)CN(C)C(=O)[C@@H]1Cc1ccc(C(F)(F)F)cc1 [PP0386] ([NMeL]I[Sar][Aze][NPrPhe(4-CF3)][Sar][hPhe(3-Cl-4-CF3)]P[Ac4c][NMeGly(cPent)]D-NMe2; lactam N-11) | C (A compound having a KD ratio of 0.1 or more and less than 3 is denoted as C) | B (a compound having 3 or more and less than 10 is denoted as B)
